Six substances from patent US20230398130A1, “METHODS AND COMPOSITIONS FOR DIFFERENTIATING STEM CELLS” (Massachusetts Institute of Technology, priority 2020, published 2023) can be followed below.

Assay [1] deals with ISC-enriched organoids. In words: Primary screen, 384-well 2.5-D organoid differentiation (ENR+CD, 6 days): basal lysozyme secretion (LYZ.NS). It counts as cell-based, murine. The note with it: for Dose.FC.LYZ.NS: FC vs plate median; for Z.LYZ.NS: standard z score of FC; for Dose.FC.LYZ.NS (log 2 fold change) / Dose.FC.LYZ.NS (log 2 fold change, basal lysozyme secretion): vs plate median. The text has this:
(§1) High-throughput screening.

Assay [2] concerns ISC-enriched organoids. Nature of the assay: Primary screen, 384-well 2.5-D organoid differentiation (ENR+CD, 6 days, Target Selective Inhibitor Library, vs whole-plate median): ATP (CellTiter-Glo 3D, CTG). The note with it: for Dose.FC.CTG: FC vs plate median; for Z.CTG: standard z score of FC; for Dose.FC.CTG (log 2 fold change) / Dose.FC.CTG (log 2 fold change, ATP): vs plate median.

In assay [3] the test system is ISC-enriched organoids. In words: Primary screen, 384-well 2.5-D organoid differentiation (ENR+CD, 6 days): carbachol-induced lysozyme secretion (LYZ.S). The format is cell-based, murine. As to conditions: for Dose.FC.LYZ.S / Dose.FC.LYZ.S (log 2 fold change): primary screen; for Dose.FC.LYZ.S: FC vs plate median; for Dose.FC.LYZ.S (log 2 fold change) / Dose.FC.LYZ.S (log 2 fold change, carbachol-induced lysozyme secretion): vs plate median.
From the text: as §1

As for OG-L002, the Dose.FC.LYZ.NS is 0.000 log 2 fold change in assay [1] (Dose 0.08 uM, primary screen); −0.011 log 2 fold change in assay [1] (Dose 0.40 uM, primary screen); 0.021 log 2 fold change in assay [1] (Dose 2.00 uM, primary screen); −0.091 log 2 fold change in assay [1] (Dose 10.00 uM, primary screen). Further, the Z.LYZ.NS was −0.001 in assay [1] (Dose 0.08 uM), −0.097 in assay [1] (Dose 0.40 uM), 0.182 in assay [1] (Dose 2.00 uM) and −0.790 in assay [1] (Dose 10.00 uM). In addition, the Dose.FC.CTG in assay [2] (Dose 0.08 uM, primary screen) is given as 0.094 log 2 fold change; in assay [2] (Dose 0.40 uM, primary screen) it was 0.138 log 2 fold change; in assay [2] (Dose 2.00 uM, primary screen) it was 0.128 log 2 fold change; in assay [2] (Dose 10.00 uM, primary screen) it was 0.094 log 2 fold change. The Z.CTG in assay [2] (Dose 0.08 uM) turned out to be 0.225; in assay [2] (Dose 0.40 uM), 0.329; in assay [2] (Dose 2.00 uM), 0.306; in assay [2] (Dose 10.00 uM), 0.225. In addition, the Dose.FC.LYZ.S in assay [3] (Dose 0.08 uM) is 0.023 log 2 fold change; in assay [3] (Dose 0.40 uM), 0.026 log 2 fold change; in assay [3] (Dose 2.00 uM), −0.001 log 2 fold change; in assay [3] (Dose 10.00 uM) it was −0.084 log 2 fold change.

For the substance S3I-201, the “Z.LYZ.NS (standard z score)” value in assay [1] (Dose 0.08 uM, primary screen) is reported as 0.445; in assay [1] (Dose 0.40 uM, primary screen), 0.527; in assay [1] (Dose 2.00 uM, primary screen), 0.212; in assay [1] (Dose 10.00 uM, primary screen) it was −0.143. Also, the “Dose.FC.LYZ.NS (log 2 fold change)” value in assay [1] (Dose 0.08 uM, primary screen) is reported as 0.051; in assay [1] (Dose 0.40 uM, primary screen) it was 0.061; in assay [1] (Dose 2.00 uM, primary screen), 0.024; in assay [1] (Dose 10.00 uM, primary screen), −0.016. In addition, the “Z.CTG (standard z score)” value in assay [2] (Dose 0.08 uM, primary screen) is 0.766; in assay [2] (Dose 0.40 uM, primary screen), 0.382; in assay [2] (Dose 2.00 uM, primary screen) it was 0.188; in assay [2] (Dose 10.00 uM, primary screen) it was −0.334. Further, the “Dose.FC.CTG (log 2 fold change)” value in assay [2] (Dose 0.08 uM, primary screen) is 0.321; in assay [2] (Dose 0.40 uM, primary screen), 0.160; in assay [2] (Dose 2.00 uM, primary screen), 0.079; in assay [2] (Dose 10.00 uM, primary screen) it was −0.140. In addition, the “Dose.FC.LYZ.S (log 2 fold change)” value in assay [3] (Dose 0.08 uM) is 0.033; in assay [3] (Dose 0.40 uM), 0.157; in assay [3] (Dose 2.00 uM) it was −0.004; in assay [3] (Dose 10.00 uM), −0.052.

As to SN-38, the “Z.LYZ.NS (standard z score)” value in assay [1] (Dose 0.08 uM, primary screen) is −2.391; in assay [1] (Dose 0.40 uM, primary screen), −2.505; in assay [1] (Dose 2.00 uM, primary screen), −2.655; in assay [1] (Dose 10.00 uM, primary screen) it was −2.606. Besides, the “Dose.FC.LYZ.NS (log 2 fold change)” value in assay [1] (Dose 0.08 uM, primary screen) is given as −0.275; in assay [1] (Dose 0.40 uM, primary screen) it was −0.288; in assay [1] (Dose 2.00 uM, primary screen), −0.305; in assay [1] (Dose 10.00 uM, primary screen), −0.299. The “Z.CTG (standard z score)” value in assay [2] (Dose 0.08 uM, primary screen) is recorded as −1.720; in assay [2] (Dose 0.40 uM, primary screen) it was −2.606; in assay [2] (Dose 2.00 uM, primary screen), −2.929; in assay [2] (Dose 10.00 uM, primary screen) it was −2.785. For the same substance, the “Dose.FC.CTG (log 2 fold change)” value is reported as −0.720 in assay [2] (Dose 0.08 uM, primary screen); −1.091 in assay [2] (Dose 0.40 uM, primary screen); −1.226 in assay [2] (Dose 2.00 uM, primary screen); −1.166 in assay [2] (Dose 10.00 uM, primary screen). The “Dose.FC.LYZ.S (log 2 fold change)” value is reported as −0.419 in assay [3] (Dose 0.08 uM), −0.402 in assay [3] (Dose 0.40 uM), −0.391 in assay [3] (Dose 2.00 uM) and −0.404 in assay [3] (Dose 10.00 uM).

Take SNS-314 Mesylate: the “Z.LYZ.NS (standard z score)” value is recorded as −0.620 in assay [1] (Dose 0.08 uM, primary screen); −0.515 in assay [1] (Dose 0.40 uM, primary screen); −1.111 in assay [1] (Dose 2.00 uM, primary screen); −1.109 in assay [1] (Dose 10.00 uM, primary screen). Also, the “Dose.FC.LYZ.NS (log 2 fold change)” value in assay [1] (Dose 0.08 uM, primary screen) is −0.071; in assay [1] (Dose 0.40 uM, primary screen), −0.059; in assay [1] (Dose 2.00 uM, primary screen), −0.128; in assay [1] (Dose 10.00 uM, primary screen) it was −0.127. For the same substance, the “Z.CTG (standard z score)” value in assay [2] (Dose 0.08 uM, primary screen) is −1.591; in assay [2] (Dose 0.40 uM, primary screen), −1.857; in assay [2] (Dose 2.00 uM, primary screen) it was −1.142; in assay [2] (Dose 10.00 uM, primary screen), −1.480. Also, the “Dose.FC.CTG (log 2 fold change)” value was −0.666 in assay [2] (Dose 0.08 uM, primary screen); −0.777 in assay [2] (Dose 0.40 uM, primary screen); −0.478 in assay [2] (Dose 2.00 uM, primary screen); −0.620 in assay [2] (Dose 10.00 uM, primary screen). Besides, the “Dose.FC.LYZ.S (log 2 fold change)” value was −0.115 in assay [3] (Dose 0.08 uM), −0.103 in assay [3] (Dose 0.40 uM), −0.133 in assay [3] (Dose 2.00 uM) and −0.198 in assay [3] (Dose 10.00 uM).

Take VU 0364439: the “Z.LYZ.NS (standard z score)” value is 0.715 in assay [1] (dose 0.08 uM), 0.099 in assay [1] (dose 0.40 uM), 0.089 in assay [1] (dose 2.00 uM) and −0.476 in assay [1] (dose 10.00 uM). The “Dose.FC.LYZ.NS (log 2 fold change, basal lysozyme secretion)” value in assay [1] (dose 0.08 uM) is recorded as 0.082; in assay [1] (dose 0.40 uM), 0.011; in assay [1] (dose 2.00 uM), 0.010; in assay [1] (dose 10.00 uM), −0.055. Further, the “Z.CTG (standard z score)” value is reported as 0.058 in assay [2] (dose 0.08 uM), −0.289 in assay [2] (dose 0.40 uM), −0.616 in assay [2] (dose 2.00 uM) and 0.022 in assay [2] (dose 10.00 uM). The “Dose.FC.CTG (log 2 fold change, ATP)” value is listed as 0.024 in assay [2] (dose 0.08 uM), −0.121 in assay [2] (dose 0.40 uM), −0.258 in assay [2] (dose 2.00 uM) and 0.009 in assay [2] (dose 10.00 uM). Also, the “Dose.FC.LYZ.S (log 2 fold change, carbachol-induced lysozyme secretion)” value in assay [3] (dose 0.08 uM) was 0.108; in assay [3] (dose 0.40 uM), 0.124; in assay [3] (dose 2.00 uM), −0.043; in assay [3] (dose 10.00 uM) it was −0.038.

Take VU 0364770: the “Z.LYZ.NS (standard z score)” value was 1.350 in assay [1] (dose 0.08 uM), 0.736 in assay [1] (dose 0.40 uM), 1.020 in assay [1] (dose 2.00 uM) and 0.884 in assay [1] (dose 10.00 uM). Besides, the “Dose.FC.LYZ.NS (log 2 fold change, basal lysozyme secretion)” value stood at 0.155 in assay [1] (dose 0.08 uM), 0.085 in assay [1] (dose 0.40 uM), 0.117 in assay [1] (dose 2.00 uM) and 0.102 in assay [1] (dose 10.00 uM). Besides, the “Z.CTG (standard z score)” value was 0.031 in assay [2] (dose 0.08 uM), 0.204 in assay [2] (dose 0.40 uM), 0.199 in assay [2] (dose 2.00 uM) and −0.246 in assay [2] (dose 10.00 uM). Also, the “Dose.FC.CTG (log 2 fold change, ATP)” value in assay [2] (dose 0.08 uM) is reported as 0.013; in assay [2] (dose 0.40 uM) it was 0.085; in assay [2] (dose 2.00 uM) it was 0.083; in assay [2] (dose 10.00 uM), −0.103. The “Dose.FC.LYZ.S (log 2 fold change, carbachol-induced lysozyme secretion)” value in assay [3] (dose 0.08 uM) came to 0.082; in assay [3] (dose 0.40 uM), 0.125; in assay [3] (dose 2.00 uM), 0.139; in assay [3] (dose 10.00 uM), 0.066.
